Numbers after ± are expanded uncertainties.
Details: 298.2 K, 101.33 kPa, Liquid; for viscosity: Falling or rolling sphere viscometry; for mass density: Vibrating tube method

SMILES | viscosity [mPa·s] | mass density [kg/m3]
C=C(C)[C@H]1CC=C(C)CC1 [(R)-1-methyl-4-(1-methylethenyl)cyclohexene] | 0.92 ± 0.12 | 841.35 ± 0.36
C=CC(C)(O)CCC=C(C)C (centres undefined) [3,7-dimethyl-1,6-octadien-3-ol] | 4.57 ± 0.13 | 857.38 ± 0.28
